These are literature values, as cited in patent EP4555997A1, “WATER-SOLUBLE COMPOSITION COMPRISING UROLITHIN” (Science4Beauty Sp. z o.o., priority 2023, dated 2025).

The conditions of this series: HPLC-determined, water at 30° C.

Regarding `O=c1oc2cc(O)ccc2c2ccc(O)cc12` [UroA, 3,8-dihydroxy-6H-benzo[c]chromen-6-one], the solubility in water entry is on record as “less than 0.01 g/L”.
